What was measured:
MDA-MB-468 = type: cell-based; conditions: Homo sapiens, one dose 10^-5 M, 48 h
TK-10 = type: cell-based; conditions: Homo sapiens, one dose 10^-5 M, 48 h
OVCAR-4 = type: cell-based; conditions: Homo sapiens, one dose 10^-5 M, 48 h
RPMI-8226 = type: cell-based; conditions: Homo sapiens, one dose 10^-5 M, 48 h
SR = type: cell-based; conditions: Homo sapiens, one dose 10^-5 M, 48 h
SW-620 = type: cell-based; conditions: Homo sapiens, one dose 10^-5 M, 48 h
A498 = type: cell-based; conditions: Homo sapiens, one dose 10^-5 M, 48 h
HT29 = type: cell-based; conditions: Homo sapiens, HT-29, one dose 10^-5 M, 48 h
K-562 = type: cell-based; conditions: Homo sapiens, K562, one dose 10^-5 M, 48 h
[1] = test system: full NCI 60 cell lines panel; conditions: for activity at 10 µM: Homo sapiens, 60 cell, read-out: Mean % growth; for activity on all 60 cancer cell lines tested (in words): one dose
786-0 = type: cell-based; conditions: Homo sapiens, one dose 10^-5 M, 48 h
LOX IMVI = type: cell-based; conditions: Homo sapiens, one dose 10^-5 M, 48 h, read-out: % growth
HCT-15 = type: cell-based; conditions: Homo sapiens, one dose 10^-5 M, 48 h, read-out: % growth
HOP-62 = type: cell-based; conditions: Homo sapiens, one dose 10^-5 M, 48 h
MCF7 = type: cell-based; conditions: Homo sapiens, one dose 10^-5 M, 48 h, read-out: % growth
U251 = type: cell-based; conditions: Homo sapiens, U-251, one dose 10^-5 M, 48 h
SN12C = type: cell-based, human; conditions: Homo sapiens, one dose 10^-5 M, 48 h
SK-OV-3 = type: cell-based; conditions: Homo sapiens, one dose 10^-5 M, 48 h
NCI-H522 = type: cell-based; conditions: Homo sapiens, one dose 10^-5 M, 48 h
PC-3 = type: cell-based; conditions: Homo sapiens, one dose 10^-5 M, 48 h
MDA-MB-231/ATCC = type: cell-based; conditions: Homo sapiens, one dose 10^-5 M, 48 h
CCRF-CEM = type: cell-based; conditions: Homo sapiens, one dose 10^-5 M, 48 h
NCI-H23 = type: cell-based; conditions: Homo sapiens, one dose 10^-5 M, 48 h, read-out: % growth
ACHN = type: cell-based; conditions: Homo sapiens, one dose 10^-5 M, 48 h
CAKI-1 = type: cell-based; conditions: Homo sapiens, CAKI-1, 48 h, one dose 10^-5 M, 48 h
SK-MEL-2 = type: cell-based; conditions: Homo sapiens, one dose 10^-5 M, 48 h
SK-MEL-28 = type: cell-based; conditions: Homo sapiens, one dose 10^-5 M, 48 h
SF-268 = type: cell-based; conditions: Homo sapiens, one dose 10^-5 M, 48 h, read-out: % growth
UO-31 = type: cell-based; conditions: Homo sapiens, UO-31, 48 h, one dose 10^-5 M, 48 h
SNB-19 = type: cell-based; conditions: Homo sapiens, one dose 10^-5 M, 48 h, read-out: % growth
OVCAR-5 = type: cell-based; conditions: Homo sapiens, one dose 10^-5 M, 48 h
DU-145 = type: cell-based; conditions: Homo sapiens, one dose 10^-5 M, 48 h
MOLT-4 = type: cell-based; conditions: Homo sapiens, one dose 10^-5 M, 48 h, read-out: % growth
EKVX = type: cell-based; conditions: Homo sapiens, one dose 10^-5 M, 48 h
RXF 393 = type: cell-based; conditions: Homo sapiens, RXF 393, 48 h, one dose 10^-5 M, 48 h, read-out: % growth
NCI/ADR-RES = type: cell-based; conditions: Homo sapiens, one dose 10^-5 M, 48 h
OVCAR-3 = type: cell-based; conditions: Homo sapiens, one dose 10^-5 M, 48 h
HS 578T = type: cell-based; conditions: Homo sapiens; one dose 10^-5 M, 48 h; HS 578T; read-out: % growth
M14 = type: cell-based; conditions: Homo sapiens, one dose 10^-5 M, 48 h
A549/ATCC = type: cell-based; conditions: Homo sapiens, one dose 10^-5 M, 48 h
SF-295 = type: cell-based; conditions: Homo sapiens, one dose 10^-5 M, 48 h
NCI-H226 = type: cell-based; conditions: Homo sapiens, one dose 10^-5 M, 48 h
BT-549 = type: cell-based; conditions: Homo sapiens, one dose 10^-5 M, 48 h
HCT-116 = type: cell-based; conditions: Homo sapiens, one dose 10^-5 M, 48 h, read-out: % growth
HCC-2998 = type: cell-based; conditions: Homo sapiens, one dose 10^-5 M, 48 h
T-47D = type: cell-based; conditions: Homo sapiens, T47D, one dose 10^-5 M, 48 h, read-out: % growth
MALME-3M = type: cell-based; conditions: Homo sapiens, one dose 10^-5 M, 48 h
IGROV1 = type: cell-based; conditions: Homo sapiens, IGROV-1, one dose 10^-5 M, 48 h, read-out: % growth
HOP-92 = type: cell-based; conditions: Homo sapiens, one dose 10^-5 M, 48 h
COLO 205 = type: cell-based; conditions: Homo sapiens, one dose 10^-5 M, 48 h
KM12 = type: cell-based; conditions: Homo sapiens, one dose 10^-5 M, 48 h
UACC-257 = type: cell-based; conditions: Homo sapiens, one dose 10^-5 M, 48 h
HL-60(TB) = type: cell-based; conditions: Homo sapiens, one dose 10^-5 M, 48 h
OVCAR-8 = type: cell-based; conditions: Homo sapiens, one dose 10^-5 M, 48 h
UACC-62 = type: cell-based; conditions: Homo sapiens, one dose 10^-5 M, 48 h
MDA-MB-435 = type: cell-based; conditions: Homo sapiens, one dose 10^-5 M, 48 h, read-out: % growth
SF-539 = type: cell-based; conditions: Homo sapiens, one dose 10^-5 M, 48 h
NCI-H460 = type: cell-based; conditions: Homo sapiens, one dose 10^-5 M, 48 h, read-out: % growth
SK-MEL-5 = type: cell-based; conditions: Homo sapiens, one dose 10^-5 M, 48 h, read-out: % growth

`N=C(NN=Cc1ccc(Br)cc1)c1c(N)nc(S)nc1-c1ccc(Cl)cc1Cl` [Compound 4q, 4-amino-N'-[(4-bromophenyl)methylene]-6–(2,4-dichlorophenyl)-2-mercapto pyrimidine-5-carboximidohydrazide] showed a percent cell growth at 10 µM (MDA-MB-468) of 113%, a % cell growth at 10 µM (TK-10) of 148% and a % growth at 10 µM (OVCAR-4) of 109%. For the same molecule, the % growth at 10 µM (RPMI-8226) was 98.8%, the percent cell growth at 10 µM (SR) was 86.7% and the % growth at 10 µM (SW-620) was 108%. The % growth at 10 µM (A498) was 129%, the % growth at 10 µM (HT29) was 112% and the % growth at 10 µM (K-562) was 92.2%. The activity at 10 µM ([1]; 48 h) was 104%, the “activity on all 60 cancer cell lines tested (in words)” value [1] was “weak activity” and the % growth at 10 µM (786-0) was 93.8%. It also gave an activity at 10 µM (LOX IMVI) of 109%, an activity at 10 µM (HCT-15) of 108% and a % growth at 10 µM (HOP-62) of 101%. It also gave an activity at 10 µM (MCF7) of 90.9%, a % growth at 10 µM (U251) of 107% and a % growth at 10 µM (SN12C) of 103%. It also gave a % growth at 10 µM (SK-OV-3) of 103%, a % growth at 10 µM (NCI-H522) of 101% and a percent cell growth at 10 µM (PC-3) of 102%. The % growth at 10 µM (MDA-MB-231/ATCC) was 98.5%, the % cell growth at 10 µM (CCRF-CEM) was 96.8% and the activity at 10 µM (NCI-H23) was 102%. It also gave a % growth at 10 µM (ACHN) of 108%, a % growth at 10 µM (CAKI-1) of 86.9% and a % growth at 10 µM (SK-MEL-2) of 109%. It also gave a % cell growth at 10 µM (SK-MEL-28) of 106%, an activity at 10 µM (SF-268) of 105% and a % cell growth at 10 µM (UO-31) of 94.2%. For the same molecule, the activity at 10 µM (SNB-19) was 99.2%, the percent cell growth at 10 µM (OVCAR-5) was 119% and the % growth at 10 µM (DU-145) was 108%. For the same molecule, the activity at 10 µM (MOLT-4) was 91.4%, the % cell growth at 10 µM (EKVX) was 108% and the activity at 10 µM (RXF 393) was 101%. The cell growth percent at 10 µM (NCI/ADR-RES) was 114%, the % growth at 10 µM (OVCAR-3) was 104% and the activity at 10 µM (HS 578T) was 118%. It also gave a % growth at 10 µM (M14) of 101%, a % growth at 10 µM (A549/ATCC) of 98.8% and a % cell growth at 10 µM (SF-295) of 96.6%. It also gave a % growth at 10 µM (NCI-H226) of 107%, a % cell growth at 10 µM (BT-549) of 97.7% and an activity at 10 µM (HCT-116) of 96.2%. It also gave a % growth at 10 µM (HCC-2998) of 114%, an activity at 10 µM (T-47D) of 110% and a % growth at 10 µM (MALME-3M) of 91.2%. For the same molecule, the activity at 10 µM (IGROV1) was 105%, the % growth at 10 µM (HOP-92) was 102% and the % growth at 10 µM (COLO 205) was 114%. For the same molecule, the % growth at 10 µM (KM12) was 100%, the percent cell growth at 10 µM (UACC-257) was 102% and the % growth at 10 µM (HL-60(TB)) was 96.5%. It also gave a % growth of cells at 10 µM (OVCAR-8) of 114%, a % growth at 10 µM (UACC-62) of 96.4% and an activity at 10 µM (MDA-MB-435) of 104%. For the same molecule, the % growth at 10 µM (SF-539) was 102%, the activity at 10 µM (NCI-H460) was 110% and the activity at 10 µM (SK-MEL-5) was 104%.

`N=C(NN=Cc1ccc(Cl)cc1Cl)c1c(N)nc(S)nc1-c1ccc(Cl)cc1Cl` [Compound 4r, 4-amino-6–(2,4-dichlorophenyl)-N'-[(2,4-dichlorophenyl)methylene]-2-mercapto pyrimidine-5-carboximidohydrazide] gave a percent cell growth at 10 µM (MDA-MB-468) of 111%, a % cell growth at 10 µM (TK-10) of 112% and a % growth at 10 µM (OVCAR-4) of 104%. It also gave a % growth at 10 µM (RPMI-8226) of 106%, a percent cell growth at 10 µM (SR) of 92.6% and a % growth at 10 µM (SW-620) of 105%. The % growth at 10 µM (A498) was 117%, the % growth at 10 µM (HT29) was 118% and the % growth at 10 µM (K-562) was 100%. For the same molecule, the activity at 10 µM ([1]; 48 h) was 104%, the “activity on all 60 cancer cell lines tested (in words)” value [1] was “weak activity” and the Mean % growth ([1]; one dose 10^-5 M, 48 h, mean over all cell lines) was 103.80%. For the same molecule, the % growth at 10 µM (786-0) was 87.5%, the activity at 10 µM (LOX IMVI) was 104% and the activity at 10 µM (HCT-15) was 113%. The % growth at 10 µM (HOP-62) was 102%, the activity at 10 µM (MCF7) was 98.9% and the % growth at 10 µM (U251) was 105%. It also gave a % growth at 10 µM (SN12C) of 102%, a % growth at 10 µM (SK-OV-3) of 105% and a % growth at 10 µM (NCI-H522) of 100%. It also gave a percent cell growth at 10 µM (PC-3) of 98.1%, a % growth at 10 µM (MDA-MB-231/ATCC) of 101% and a % cell growth at 10 µM (CCRF-CEM) of 94.9%. It also gave an activity at 10 µM (NCI-H23) of 104%, a % growth at 10 µM (ACHN) of 107% and a % growth at 10 µM (CAKI-1) of 109%. The % growth at 10 µM (SK-MEL-2) was 111%, the % cell growth at 10 µM (SK-MEL-28) was 113% and the activity at 10 µM (SF-268) was 101%. It also gave a % cell growth at 10 µM (UO-31) of 92.5%, an activity at 10 µM (SNB-19) of 94.6% and a percent cell growth at 10 µM (OVCAR-5) of 117%. The % growth at 10 µM (DU-145) was 108%, the activity at 10 µM (MOLT-4) was 100% and the % cell growth at 10 µM (EKVX) was 114%. It also gave an activity at 10 µM (RXF 393) of 119%, a cell growth percent at 10 µM (NCI/ADR-RES) of 111% and a % growth at 10 µM (OVCAR-3) of 108%. It also gave an activity at 10 µM (HS 578T) of 105%, a % growth at 10 µM (M14) of 97.4% and a % growth at 10 µM (A549/ATCC) of 102%. For the same molecule, the % cell growth at 10 µM (SF-295) was 98.5%, the % growth at 10 µM (NCI-H226) was 106% and the % cell growth at 10 µM (BT-549) was 91.6%. It also gave an activity at 10 µM (HCT-116) of 102%, a % growth at 10 µM (HCC-2998) of 100% and an activity at 10 µM (T-47D) of 103%. It also gave a % growth at 10 µM (MALME-3M) of 86.5%, an activity at 10 µM (IGROV1) of 102% and a % growth at 10 µM (HOP-92) of 78%. For the same molecule, the % growth at 10 µM (COLO 205) was 113%, the % growth at 10 µM (KM12) was 100% and the percent cell growth at 10 µM (UACC-257) was 106%. For the same molecule, the % growth at 10 µM (HL-60(TB)) was 102%, the % growth of cells at 10 µM (OVCAR-8) was 110% and the % growth at 10 µM (UACC-62) was 96.4%. It also gave an activity at 10 µM (MDA-MB-435) of 113%, a % growth at 10 µM (SF-539) of 101% and an activity at 10 µM (NCI-H460) of 111%. The activity at 10 µM (SK-MEL-5) was 107%.

— publication PMC10866072, “Design, synthesis, molecular modelling and biological evaluation of novel 6-amino-5-cyano-2-thiopyrimidine derivatives as potent anticancer agents against leukemia and apoptotic inducers” (Journal of Enzyme Inhibition and Medicinal Chemistry, 2024)
